From PubChem BioAssay AID602239 (National Center for Advancing Translational Sciences (NCATS), 2012)

System: mouse liver microsomes with NADPH, LC-MS/MS
Test: qHTS for Activators of Human alpha-Glucosidase as a Potential Chaperone Treatment of Pompe Disease: Metabolic Stability in presence of NADPH
Details: at 5 µM; hits give high values (more stable)
Text: Alpha-glucosidase is responsible for hydrolysis of terminal, non-reducing 1,4-linked alpha-D-glucose residues with release of alpha-D-glucose. It is a lysosomal hydrolase that is required for the degradation of a small percentage (1-3%) of cellular glycogen in human. Deficiency of this enzyme results in glycogen-storage disease type II (GSDII), also referred to as Pompe disease, an autosomal recessive disorder. Structurally normal glycogen is accumulated in lysosomes and cytoplasm in affected patients, primarily in muscle tissues. Excessive glycogen storage within lysosomes may interrupt normal functioning of other organelles and leads to cellular injury. In turn, this leads to enlargement and dysfunction of the entire organ involved (eg, cardiomyopathy and muscle weakness). It has reported that the improper folding and trafficking of alpha-glucosidase resulting from the genetic mutations may account for a significant number of Pompe patients. […] We optimized this alpha-glucosidase assay in 1536-well plate format for identifying the novel small molecule inhibitors with the structures other than the sugar analogs in order to develop the new pharmacological chaperones. Mouse liver microsomes are created through broken up endoplasmic reticulum from mouse liver. These liver microsomes contain many drug metabolizing enzymes, such as Cytochome P-450s and flavin-containing monooxygenases. […] NIH Chemical Genomics Center [NCGC] NIH Molecular Libraries Probe Production Centers Network [MLPCN] MLPCN Grant: MH084841 Assay Submitter (PI): Wei Zheng
5uM of compound is incubated with mouse liver microsome; the reference compounds are verapamil and warfarin. Compounds are incubated and samples are analyzed with LC-MS/MS.

| percent remaining (higher = more stable) [%] | Structure (SMILES) |
| --- | --- |
| 63 | CCCN1CNc2c(c(=O)[nH]c(=S)n2Cc2ccc(OC)c(OC)c2)C1 |
| 4 | CCCN1CNc2c(c(=O)[nH]c(=S)n2CCc2ccc(OC)c(OC)c2)C1 |
| 2 | CCCN1CNc2c(c(=O)[nH]c(=S)n2CCc2cccc(Cl)c2Cl)C1 |
